Data taken from patent US10245252B2, “Use of alkylamidothiazoles in cosmetic or dermatological preparations for the prophylaxis or treatment of sensitive skin” (BEIERSDORF AG, priority 2013, dated 2019).

What was measured:
Assay type in all cases: cell-based
blood leukocytes = test: release of interleukin 1β from blood leukocytes following stimulation by LPS; conditions: FIG. 3
Protocol: (§1) In further experiments it was investigated whether the inhibition of the NFκB activation also actually reduces the subsequent secretion of pro-inflammatory mediators. By way of example, the results of two experiments are documented in the figures. By incubation of human dermal fibroblasts with lipopolysaccharides (LPS), the formation of the pro-inflammatory prostaglandin E2 was induced in the cells, and a specific ELISA was used to determine the concentration in the cell culture supernatant, following incubation for 24 hours with LPS and increasing concentrations of the substances according to the invention. […] In the next experiment, the release of interleukin 1β (IL-1β) from blood leukocytes following stimulation by LPS and simultaneous incubation (for 24 hours) with the substances according to the invention was measured. […] The anti-inflammatory activity level of the alkylamidothiazoles is thus that of recognized pharmacological standards, although higher concentrations of the substances according to the invention do have to be used.

human dermal fibroblasts = test: LPS-induced prostaglandin E2 formation in human dermal fibroblasts, ELISA of cell culture supernatant; conditions: incubation for 24 hours with LPS and increasing concentrations, FIG. 2, compared with diclofenac
Protocol: as §1

NFκB = NFκB activity assay (commercial assay from Cell Culture Service GmbH), NFκB activated by TNF-alpha; conditions: NFκB activated by adding TNF-alpha; FIG. 1; very low concentrations
Description: The nuclear factor kappa B (NFκB) is a master regulator of inflammation. The expression of many pro-inflammatory mediators (e.g. cytokines and chemokines) is controlled by NFκB. The inhibition of the activation of NFκB is therefore an important mechanism for minimizing inflammation processes. To measure the NFκB activity, a commercial assay from Cell Culture Service GmbH, Hamburg, was used. In this test, NFκB is activated by adding the pro-inflammatory mediator TNF-alpha. The addition of the alkylamidothiazoles according to the invention prevents the TNF-alpha effect in a dose-dependent manner.

Structure (SMILES): CC(C)C(=O)Nc1nc(-c2ccc(O)cc2O)cs1 [N-(4-(2,4-dihydroxyphenyl)thiazol-2-yl)isobutyramide]
- release of interleukin 1β (IL-1β) (blood leukocytes; LPS stimulation and simultaneous incubation for 24 hours): very good anti-inflammatory effectiveness
- release of interleukin 1β (IL-1β), effectiveness relative to dexamethasone (blood leukocytes; concentration of 16.67 μM, LPS, 24 hours): an effectiveness as for 500 ng of dexamethasone
- release of PGE2 (human dermal fibroblasts): very significantly reduces the release of PGE2 to a level which is comparable to the pharmacological standard diclofenac
- inhibition of the TNF-alpha-induced activation of NFκB (NFκB): prevent the TNF-alpha-induced activation of NFκB
